The record followed here is paper PMC5218480 (PLoS ONE, 2017).

The subject of the test is MV-4-11 cells. Description: Gene expression microarray analysis (Affymetrix PrimeView) and GSEA. In kind it is cell-based, human. Further details: RFU PODN (11730768_x_at) / Fold change /veh PODN (11730768_x_at) / RFU LINC00158 (11744669_a_at) / Fold change /veh LINC00158 (11744669_a_at) / RFU DUSP10 (11751237_a_at) / Fold change /veh DUSP10 (11751237_a_at) / RFU ID3 (11757404_x_at) / Fold change /veh ID3 (11757404_x_at) / RFU PLEKHG5 (11737974_s_at) / Fold change /veh PLEKHG5 (11737974_s_at) / RFU LRRC4B (11730491_at) / Fold change /veh LRRC4B (11730491_at) / RFU GIMAP4 (11747438_a_at) / Fold change /veh GIMAP4 (11747438_a_at) / RFU KRT8 (11758183_x_at) / Fold change /veh KRT8 (11758183_x_at) / RFU CNN1 (11734310_a_at) / Fold change /veh CNN1 (11734310_a_at) / RFU VPS37D (11726825_at) / Fold change /veh VPS37D (11726825_at) / RFU C10orf10 (11716522_x_at) / Fold change /veh C10orf10 (11716522_x_at) / RFU KIR2DL2 /// KIR2DL4 /// KIR2DL5A /// KIR2DL5B /// KIR2DS1 /// KIR2DS2 /// KIR2DS3 /// KIR2DS4 /// KIR3DL3 /// KIR3DL3 /// KIR3DS1 (11738374_at) / Fold change /veh KIR2DL2 /// KIR2DL4 /// KIR2DL5A /// KIR2DL5B /// KIR2DS1 /// KIR2DS2 /// KIR2DS3 /// KIR2DS4 /// KIR3DL3 /// KIR3DL3 /// KIR3DS1 (11738374_at) / RFU C1QL1 (11718748_at) / Fold change /veh C1QL1 (11718748_at) / RFU TMPRSS4 (11747572_a_at) / Fold change /veh TMPRSS4 (11747572_a_at) / RFU HAMP (11756126_x_at) / Fold change /veh HAMP (11756126_x_at) / RFU RNFT2 (11725882_a_at) / Fold change /veh RNFT2 (11725882_a_at) / RFU NR4A2 (11747474_a_at) / Fold change /veh NR4A2 (11747474_a_at) / RFU ABCC12 (11746883_a_at) / Fold change /veh ABCC12 (11746883_a_at) / RFU TMEM136 (11760407_x_at) / Fold change /veh TMEM136 (11760407_x_at) / RFU CLDN22 /// WWC2 (11732394_at) / Fold change /veh CLDN22 /// WWC2 (11732394_at) / RFU HLA-DPB1 (11760878_x_at) / Fold change /veh HLA-DPB1 (11760878_x_at) / RFU SPINT1 (11716480_a_at) / Fold change /veh SPINT1 (11716480_a_at) / RFU GAP43 (11754022_s_at) / Fold change /veh GAP43 (11754022_s_at) / RFU A4GNT (11735810_at) / Fold change /veh A4GNT (11735810_at) / RFU PRB3 (11715151_x_at) / Fold change /veh PRB3 (11715151_x_at) / RFU TUBB4B (11761932_at) / Fold change /veh TUBB4B (11761932_at) / RFU CAPN14 (11732068_a_at) / Fold change /veh CAPN14 (11732068_a_at) / RFU TMCC2 (11721928_a_at) / Fold change /veh TMCC2 (11721928_a_at) / RFU IRGQ (11745062_a_at) / Fold change /veh IRGQ (11745062_a_at) / RFU FAM174B (11720279_a_at) / Fold change /veh FAM174B (11720279_a_at) / RFU TMPRSS4 (11748680_a_at) / Fold change /veh TMPRSS4 (11748680_a_at) / RFU FAM212B (11763350_a_at) / Fold change /veh FAM212B (11763350_a_at) / RFU PLEKHG5 (11743358_a_at) / Fold change /veh PLEKHG5 (11743358_a_at) / RFU ZSCAN30 (11745921_a_at) / Fold change /veh ZSCAN30 (11745921_a_at) / RFU CMKLR1 (11741424_a_at) / Fold change /veh CMKLR1 (11741424_a_at) / RFU LOC101060620 /// MAPK8IP1 (11723275_at) / Fold change /veh LOC101060620 /// MAPK8IP1 (11723275_at) / RFU SPTSSB (11747773_x_at) / Fold change /veh SPTSSB (11747773_x_at) / RFU PRSS12 (11739890_at) / Fold change /veh PRSS12 (11739890_at) / RFU BIN1 (11741810_x_at) / Fold change /veh BIN1 (11741810_x_at) / RFU WNT11 (11732464_a_at) / Fold change /veh WNT11 (11732464_a_at) / RFU C10orf10 (11716521_a_at) / Fold change /veh C10orf10 (11716521_a_at) / RFU C5orf56 (11738089_at) / Fold change /veh C5orf56 (11738089_at) / RFU CYB561 (11721691_x_at) / Fold change /veh CYB561 (11721691_x_at) / RFU ANKRD19P (11752326_a_at) / Fold change /veh ANKRD19P (11752326_a_at) / RFU OR2T12 /// OR2T33 /// OR2T8 (11738714_s_at) / Fold change /veh OR2T12 /// OR2T33 /// OR2T8 (11738714_s_at) / RFU VCAN (11748164_a_at) / Fold change /veh VCAN (11748164_a_at) / RFU JSRP1 (11732532_at) / Fold change /veh JSRP1 (11732532_at) / RFU KRTAP10-11 (11738290_x_at) / Fold change /veh KRTAP10-11 (11738290_x_at) / RFU MYO3A (11730013_a_at) / Fold change /veh MYO3A (11730013_a_at) / RFU EBF3 (11725865_a_at) / Fold change /veh EBF3 (11725865_a_at) / RFU CAMK2N1 (11719241_x_at) / Fold change /veh CAMK2N1 (11719241_x_at) / RFU C5orf56 (11738088_a_at) / Fold change /veh C5orf56 (11738088_a_at) / RFU OLFML3 (11715873_a_at) / Fold change /veh OLFML3 (11715873_a_at) / RFU LOC100653217 /// NTM (11731650_a_at) / Fold change /veh LOC100653217 /// NTM (11731650_a_at) / RFU MAPK11 (11762145_a_at) / Fold change /veh MAPK11 (11762145_a_at) / RFU FIZ1 (11724087_x_at) / Fold change /veh FIZ1 (11724087_x_at) / RFU OASL (11726364_x_at) / Fold change /veh OASL (11726364_x_at) / RFU SOX15 (11748057_x_at) / Fold change /veh SOX15 (11748057_x_at) / RFU CD79A (11719716_a_at) / Fold change /veh CD79A (11719716_a_at) / RFU HIST1H1D (11736915_at) / Fold change /veh HIST1H1D (11736915_at) / RFU CASKIN2 (11723855_a_at) / Fold change /veh CASKIN2 (11723855_a_at) / RFU LOC730098 (11760151_x_at) / Fold change /veh LOC730098 (11760151_x_at) / RFU OR4N2 (11742367_at) / Fold change /veh OR4N2 (11742367_at) / RFU PRRT2 (11749266_a_at) / Fold change /veh PRRT2 (11749266_a_at) / RFU SNX32 (11753110_a_at) / Fold change /veh SNX32 (11753110_a_at) / RFU CDHR5 (11726645_a_at) / Fold change /veh CDHR5 (11726645_a_at) / RFU RCAN1 (11760418_a_at) / Fold change /veh RCAN1 (11760418_a_at) / RFU FAM167A (11723789_a_at) / Fold change /veh FAM167A (11723789_a_at) / RFU FAM26E (11764081_at) / Fold change /veh FAM26E (11764081_at) / RFU ISYNA1 (11749810_s_at) / Fold change /veh ISYNA1 (11749810_s_at) / RFU ACY1 (11761880_at) / Fold change /veh ACY1 (11761880_at) / RFU 11764098_at / Fold change /veh 11764098_at / RFU SAMD14 (11745864_x_at) / Fold change /veh SAMD14 (11745864_x_at) / RFU NPB (11741838_a_at) / Fold change /veh NPB (11741838_a_at) / RFU TMPRSS6 (11731388_a_at) / Fold change /veh TMPRSS6 (11731388_a_at) / RFU KRTAP10-2 (11738614_at) / Fold change /veh KRTAP10-2 (11738614_at) / RFU ARHGAP8 /// PRR5-ARHGAP8 (11727945_x_at) / Fold change /veh ARHGAP8 /// PRR5-ARHGAP8 (11727945_x_at) / RFU KRTAP5-7 /// NADSYN1 (11734609_at) / Fold change /veh KRTAP5-7 /// NADSYN1 (11734609_at) / RFU RASL12 (11751679_a_at) / Fold change /veh RASL12 (11751679_a_at) / RFU CDKN2B (11736163_a_at) / Fold change /veh CDKN2B (11736163_a_at) / RFU PRF1 (11729649_at) / Fold change /veh PRF1 (11729649_at) / RFU, ZNF638 /// ZNF638-IT1 / Fold change vs veh, ZNF638 /// ZNF638-IT1 / RFU, PANK3 / Fold change vs veh, PANK3 / RFU, SH3YL1 / Fold change vs veh, SH3YL1 / RFU, ZEB2 / Fold change vs veh, ZEB2 / RFU, NRIP1 / Fold change vs veh, NRIP1 / RFU, PTTG1IP / Fold change vs veh, PTTG1IP / RFU, CAPN2 / Fold change vs veh, CAPN2 / RFU, MED14 / Fold change vs veh, MED14 / RFU, SNORA58 / Fold change vs veh, SNORA58 / RFU, C1orf63 / Fold change vs veh, C1orf63 / RFU, LRRFIP1 / Fold change vs veh, LRRFIP1 / RFU, NDUFAF7 / Fold change vs veh, NDUFAF7 / RFU, SLC12A2 / Fold change vs veh, SLC12A2 / RFU, IBTK / Fold change vs veh, IBTK / RFU, ESF1 / Fold change vs veh, ESF1 / Fold change vs veh, TMEM50B / RFU, TAOK1 / Fold change vs veh, TAOK1 / RFU, ACBD3 / Fold change vs veh, ACBD3 / RFU, TMA16 / Fold change vs veh, TMA16 / RFU, RWDD3 / Fold change vs veh, RWDD3 / RFU, BCAT1 / Fold change vs veh, BCAT1 / RFU, EDEM3 / Fold change vs veh, EDEM3 / RFU, TMEM33 / Fold change vs veh, TMEM33 / RFU, WDR75 / Fold change vs veh, WDR75 / RFU, AHCTF1 / Fold change vs veh, AHCTF1 / RFU, TFRC / Fold change vs veh, TFRC / RFU, ZDHHC17 / Fold change vs veh, ZDHHC17 / RFU, NOM1 / Fold change vs veh, NOM1 / RFU, ARL8B / Fold change vs veh, ARL8B / RFU, ZBTB11 / Fold change vs veh, ZBTB11 / RFU, TAMM41 / Fold change vs veh, TAMM41 / RFU, KIAA1704 /// LOC100996395 / Fold change vs veh, KIAA1704 /// LOC100996395 / RFU, ING1 / Fold change vs veh, ING1 / RFU, TRMT61B / Fold change vs veh, TRMT61B / RFU, FUBP3 / Fold change vs veh, FUBP3 / RFU, TP53 / Fold change vs veh, TP53 / RFU, TNKS2 / Fold change vs veh, TNKS2 / RFU, ZFP14 / Fold change vs veh, ZFP14 / RFU, ACTR2 / Fold change vs veh, ACTR2 / RFU, PPP3R1 / Fold change vs veh, PPP3R1 / RFU, PIK3R1 / Fold change vs veh, PIK3R1 / RFU, HNRNPA1 / Fold change vs veh, HNRNPA1 / RFU, RNF170 / Fold change vs veh, RNF170 / RFU, ZNF28 / Fold change vs veh, ZNF28 / RFU, RNGTT / Fold change vs veh, RNGTT / RFU, OGT / Fold change vs veh, OGT / RFU, BRD1 / Fold change vs veh, BRD1 / RFU, MARS / Fold change vs veh, MARS / RFU, ZNF655 / Fold change vs veh, ZNF655 / RFU, FAHD1 / Fold change vs veh, FAHD1 / RFU, BDP1 / Fold change vs veh, BDP1 / RFU, LRRCC1 / Fold change vs veh, LRRCC1 / RFU, ARID1A / Fold change vs veh, ARID1A / RFU, ZNF146 / Fold change vs veh, ZNF146 / RFU, ZNF330 / Fold change vs veh, ZNF330 / RFU, GPN3 / Fold change vs veh, GPN3 / RFU, C9orf123 / Fold change vs veh, C9orf123 / RFU, N4BP2L2 / Fold change vs veh, N4BP2L2 / RFU, ARFIP1 / Fold change vs veh, ARFIP1 / RFU, FAM179B / Fold change vs veh, FAM179B / RFU, BCL10 / Fold change vs veh, BCL10 / RFU, UHRF1BP1L / Fold change vs veh, UHRF1BP1L / RFU, BET1 / Fold change vs veh, BET1 / RFU, CNOT2 / Fold change vs veh, CNOT2 / RFU, ZNF268 / Fold change vs veh, ZNF268 / Fold change vs veh, ZNF507 / RFU, DGCR2 / Fold change vs veh, DGCR2 / RFU, WDSUB1 / Fold change vs veh, WDSUB1 / Fold change vs veh, HSP90B1 /// MIR3652 / RFU, ADSS / Fold change vs veh, ADSS / RFU, GK / Fold change vs veh, GK / RFU, ZNF148 / Fold change vs veh, ZNF148 / RFU, TAF9 / Fold change vs veh, TAF9 / RFU, SLC1A5 / Fold change vs veh, SLC1A5 / RFU, SLMO2 / Fold change vs veh, SLMO2 / RFU, ABCC4 / Fold change vs veh, ABCC4 / RFU, LOC101060439 /// RAP1B / Fold change vs veh, LOC101060439 /// RAP1B / RFU, RFX7 / Fold change vs veh, RFX7 / RFU, GTPBP10 / Fold change vs veh, GTPBP10 / RFU, CNEP1R1 / Fold change vs veh, CNEP1R1 / RFU, BIVM-ERCC5 /// ERCC5 / Fold change vs veh, BIVM-ERCC5 /// ERCC5 / RFU, ILF3 / Fold change vs veh, ILF3 / RFU 11762660_at / Fold change /veh 11762660_at / RFU VCAN (11757783_s_at) / Fold change /veh VCAN (11757783_s_at) / RFU DDX43 (11728927_at) / Fold change /veh DDX43 (11728927_at) / RFU KRT8 (11758188_x_at) / Fold change /veh KRT8 (11758188_x_at) / RFU NKD1 (11759106_at) / Fold change /veh NKD1 (11759106_at) / RFU SRD5A1 (11742802_a_at) / Fold change /veh SRD5A1 (11742802_a_at) / RFU TPSAB1 /// TPSB2 (11721975_s_at) / Fold change /veh TPSAB1 /// TPSB2 (11721975_s_at) / RFU GSTM3 (11746129_a_at) / Fold change /veh GSTM3 (11746129_a_at) / RFU IL23R (11737362_x_at) / Fold change /veh IL23R (11737362_x_at) / RFU TMEM51 (11727254_a_at) / Fold change /veh TMEM51 (11727254_a_at) / RFU PIWIL2 (11732686_x_at) / Fold change /veh PIWIL2 (11732686_x_at) / RFU ORM1 (11744905_x_at) / Fold change /veh ORM1 (11744905_x_at) / RFU CCDC152 (11743942_at) / Fold change /veh CCDC152 (11743942_at) / RFU ECM1 (11717891_a_at) / Fold change /veh ECM1 (11717891_a_at) / RFU IL23R (11748794_a_at) / Fold change /veh IL23R (11748794_a_at) / RFU TNFAIP8L3 (11732012_x_at) / Fold change /veh TNFAIP8L3 (11732012_x_at) / RFU MBOAT4 (11741988_at) / Fold change /veh MBOAT4 (11741988_at) / RFU 11764193_at / Fold change /veh 11764193_at / RFU TMEM53 (11763286_at) / Fold change /veh TMEM53 (11763286_at) / RFU MAGEB2 (11727129_at) / Fold change /veh MAGEB2 (11727129_at) / RFU TMEM200A (11744735_a_at) / Fold change /veh TMEM200A (11744735_a_at) / RFU CCDC152 (11751479_a_at) / Fold change /veh CCDC152 (11751479_a_at) / RFU FAM211A (11726209_a_at) / Fold change /veh FAM211A (11726209_a_at) / RFU RGS16 (11746705_a_at) / Fold change /veh RGS16 (11746705_a_at) / RFU VCAN (11755009_s_at) / Fold change /veh VCAN (11755009_s_at) / RFU RHOB (11743442_s_at) / Fold change /veh RHOB (11743442_s_at) / RFU RGS16 (11720943_a_at) / Fold change /veh RGS16 (11720943_a_at) / RFU RGS16 (11720944_at) / Fold change /veh RGS16 (11720944_at) / RFU, VPS4B / Fold change vs veh, VPS4B / RFU, CREB1 / Fold change vs veh, CREB1 / RFU, DNAJC13 / Fold change vs veh, DNAJC13 / RFU, GNAQ / Fold change vs veh, GNAQ / RFU, CDK5R1 / Fold change vs veh, CDK5R1 / RFU, ZRANB3 / Fold change vs veh, ZRANB3 / RFU, CUL4A / Fold change vs veh, CUL4A / RFU, CCNY / Fold change vs veh, CCNY / RFU, UFL1 / Fold change vs veh, UFL1 / RFU, COG3 / Fold change vs veh, COG3 / RFU, DIAPH2 / Fold change vs veh, DIAPH2 / RFU, SKA2 / Fold change vs veh, SKA2 / RFU, AFF3 / Fold change vs veh, AFF3 / RFU, LMF1 / Fold change vs veh, LMF1 / RFU, IPO11 / Fold change vs veh, IPO11 / RFU, DFFB / Fold change vs veh, DFFB / RFU, FOXP1 / Fold change vs veh, FOXP1 / RFU, CARD8 / Fold change vs veh, CARD8 / RFU, STRN3 / Fold change vs veh, STRN3 / RFU, ADK / Fold change vs veh, ADK / RFU, RASSF2 / Fold change vs veh, RASSF2 / RFU, WIPF1 / Fold change vs veh, WIPF1 / RFU, LARP1B / Fold change vs veh, LARP1B / RFU, RASA1 / Fold change vs veh, RASA1 / RFU, RB1 / Fold change vs veh, RB1 / RFU, PPFIA1 / Fold change vs veh, PPFIA1 / RFU, MAT2A / Fold change vs veh, MAT2A / RFU, CCT5 / Fold change vs veh, CCT5 / RFU, WDR92 / Fold change vs veh, WDR92 / RFU, CUX1 / Fold change vs veh, CUX1 / RFU, TTC7A / Fold change vs veh, TTC7A / RFU, TMEM135 / Fold change vs veh, TMEM135 / RFU, DEPTOR / Fold change vs veh, DEPTOR / RFU, CPM / Fold change vs veh, CPM / RFU, DNAJB6 / Fold change vs veh, DNAJB6 / RFU, CACNA2D3 / Fold change vs veh, CACNA2D3 / RFU, DTX4 / Fold change vs veh, DTX4 / RFU, TFCP2 / Fold change vs veh, TFCP2 / RFU, GMCL1 /// GMCL1P1 / Fold change vs veh, GMCL1 /// GMCL1P1 / RFU, AEBP2 / Fold change vs veh, AEBP2 / RFU, SNHG1 /// SNORD22 /// SNORD25 /// SNORD26 /// SNORD27 /// SNORD28 /// SNORD29 /// SNORD31 / Fold change vs veh, SNHG1 /// SNORD22 /// SNORD25 /// SNORD26 /// SNORD27 /// SNORD28 /// SNORD29 /// SNORD31 / Fold change (Aza/veh), C12orf56 (ProbeSet 11735607_a_at) / Fold change (ACY-1035/veh), C12orf56 (ProbeSet 11735607_a_at) / Fold change (Aza/veh), FGFR1OP (ProbeSet 11751329_s_at) / Fold change (ACY-1035/veh), FGFR1OP (ProbeSet 11751329_s_at) / Fold change (Aza/veh), VPS36 (ProbeSet 11739960_a_at) / Fold change (ACY-1035/veh), VPS36 (ProbeSet 11739960_a_at) / RFU SYPL1 (11715823_x_at) / Fold change /veh SYPL1 (11715823_x_at) / RFU IGFBP7 (11715501_s_at) / Fold change /veh IGFBP7 (11715501_s_at) / RFU REEP3 (11722064_at) / Fold change /veh REEP3 (11722064_at) / RFU IGLL1 (11728026_x_at) / Fold change /veh IGLL1 (11728026_x_at): dose or concentration left out as unconfirmed. The conditions noted are these: MV-4-11 cells, 48 hours.

In the case of `Nc1ccc(-c2cccs2)cc1NC(=O)c1ccc2c(c1)cc(C1CC1)n2CCN1CCOCC1` [ACY-1035], the “Fold change /veh ACY1 (11761880_at)” value worked out at 1.19.
